Calls of active or inactive are those of the source. The calls are words filed in the database; no cut-off is given here.
Experiments:
[1] = Drug level in rat brain at 30 mg/kg, po after 4 hrs; assay type: ADME, organism-based; parameters: dose 30 mg/kg, route oral; conditions: read-out: Drug uptake
Rattus norvegicus [2] = assay: Effect on sleep-awake pattern in CD IGS rat model of insomnia assessed as latency to NREM sleep at 60 mg/kg, po by EEG/EMG study relative to control; assay type: functional
Rattus norvegicus [3] = assay: Effect on sleep-awake pattern in CD IGS rat model of insomnia assessed as latency to REM sleep at 60 mg/kg, po by EEG/EMG study relative to control; assay type: functional
[4] = Volume of distribution at steady state in human at 0.1 mg/kg by microdose study; assay type: ADME, organism-based; parameters: dose 0.1 mg/kg; conditions: in vivo, read-out: Vdss
[5] = Bioavailability in human at 0.1 mg/kg by microdose study; assay type: ADME, organism-based; conditions: in vivo
[6] = Half life in human at 0.1 mg/kg by microdose study; assay type: ADME, organism-based; parameters: dose 0.1 mg/kg; conditions: in vivo
[7] = Apparent permeability across human Caco-2 cells; assay type: ADME, cell-based
Rattus norvegicus [8] = assay: Increase in REM sleep in CD IGS rat model of insomnia at 30 mg/kg, po after 4 hrs by EEG/EMG study relative to control; assay type: functional
Rattus norvegicus [9] = assay: Effect on sleep-awake pattern in CD IGS rat model of insomnia assessed as latency to NREM sleep at 30 mg/kg, po by EEG/EMG study relative to control; assay type: functional
Rattus norvegicus [10] = assay: Effect on sleep-awake pattern in CD IGS rat model of insomnia assessed as longest 3 REM bouts at 30 mg/kg, po after 6 hrs by EEG/EMG study relative to control; assay type: functional
Rattus norvegicus [11] = assay: Increase in NREM sleep in CD IGS rat model of insomnia at 60 mg/kg, po after 4 hrs by EEG/EMG study relative to control; assay type: functional
[12] = Ratio of drug level in rat brain to plasma at 30 mg/kg, po after 4 hrs; assay type: ADME, organism-based; parameters: dose 30 mg/kg, route oral; conditions: read-out: Ratio
[13] = Systemic clearance in human at 0.1 mg/kg, iv by microdose study; assay type: ADME, organism-based; parameters: dose 0.1 mg/kg, route intravenous; conditions: in vivo
Histamine H1 receptor = Histamine H1 receptor (Homo sapiens, UniProt P35367); assay: Displacement of [3H]pyrilamine from human histamine H1 receptor expressed in CHO Flp-In cells after 90 mins by scintillation counting; assay type: cell-based
[14] = target: T1, Muscarinic acetylcholine receptor M1 (Homo sapiens, UniProt P11229); assay: Displacement of [3H]N-methylscopolamine from human muscarinic M1 receptor expressed in CHO Flp-In cells after 90 mins by scintillation counting; assay type: cell-based; conditions: read-out: Ki
T1 sequence (P11229 whole entry): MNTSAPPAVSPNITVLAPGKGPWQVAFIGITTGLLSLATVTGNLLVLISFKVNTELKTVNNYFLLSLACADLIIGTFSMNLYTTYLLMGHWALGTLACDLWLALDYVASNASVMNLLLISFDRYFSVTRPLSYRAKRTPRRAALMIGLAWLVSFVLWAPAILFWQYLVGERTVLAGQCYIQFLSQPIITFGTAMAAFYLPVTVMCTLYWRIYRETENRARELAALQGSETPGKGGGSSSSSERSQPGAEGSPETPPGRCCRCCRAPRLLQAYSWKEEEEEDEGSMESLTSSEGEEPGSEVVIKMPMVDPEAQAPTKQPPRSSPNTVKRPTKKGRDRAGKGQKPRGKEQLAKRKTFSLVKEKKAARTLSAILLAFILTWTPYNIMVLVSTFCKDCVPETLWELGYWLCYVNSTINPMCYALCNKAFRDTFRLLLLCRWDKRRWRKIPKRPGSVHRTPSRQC

[15] = Activity at P-glycoprotein
[16] = AUC (0 to t) in human at 0.1 mg/kg, po by microdose study; assay type: ADME, organism-based; parameters: dose 0.1 mg/kg, route oral; conditions: plasma
[17] = Drug level in rat plasma at 30 mg/kg, po after 4 hrs; assay type: ADME, organism-based; parameters: dose 30 mg/kg, route oral
Rattus norvegicus [18] = assay: Effect on sleep-awake pattern in CD IGS rat model of insomnia assessed as longest 3 REM bouts at 60 mg/kg, po after 6 hrs by EEG/EMG study relative to control; assay type: functional
Rattus norvegicus [19] = assay: Effect on sleep-awake pattern in CD IGS rat model of insomnia assessed as longest 3 NREM bouts at 30 mg/kg, po after 6 hrs by EEG/EMG study relative to control; assay type: functional
Rattus norvegicus [20] = assay: Effect on sleep-awake pattern in CD IGS rat model of insomnia assessed as latency to REM sleep at 30 mg/kg, po by EEG/EMG study relative to control; assay type: functional
Rattus norvegicus [21] = assay: Increase in NREM sleep in CD IGS rat model of insomnia at 30 mg/kg, po after 4 hrs by EEG/EMG study relative to control; assay type: functional
Rattus norvegicus [22] = assay: Effect on sleep-awake pattern in CD IGS rat model of insomnia assessed as longest 3 NREM bouts at 60 mg/kg, po after 6 hrs by EEG/EMG study relative to control; assay type: functional
Rattus norvegicus [23] = assay: Increase in REM sleep in CD IGS rat model of insomnia at 60 mg/kg, po after 4 hrs by EEG/EMG study relative to control; assay type: functional
Cytochrome P450 3A4 = Cytochrome P450 3A4 (Homo sapiens, UniProt P08684); assay: Inhibition of recombinant CYP3A4 after 30 mins by fluorescence assay
[24] = target: T2, Voltage-gated inwardly rectifying potassium channel KCNH2 (Homo sapiens, UniProt Q12809); assay: Displacement of [3H]Dofetilide from human ERG
[25] = target: T2, Voltage-gated inwardly rectifying potassium channel KCNH2; assay: Inhibition of human ERG expressed in HEK cells assessed as blockade of potassium tail current by standard patch clamp analysis
Cytochrome P450 2D6 = Cytochrome P450 2D6 (Homo sapiens, UniProt P10635); assay: Inhibition of recombinant CYP2D6 after 30 mins by fluorescence assay
Caco-2 = assay: Ratio of permeability from apical to basolateral side over basolateral to apical side in human Caco-2 cells

Sequence of Histamine H1 receptor (P35367 whole entry): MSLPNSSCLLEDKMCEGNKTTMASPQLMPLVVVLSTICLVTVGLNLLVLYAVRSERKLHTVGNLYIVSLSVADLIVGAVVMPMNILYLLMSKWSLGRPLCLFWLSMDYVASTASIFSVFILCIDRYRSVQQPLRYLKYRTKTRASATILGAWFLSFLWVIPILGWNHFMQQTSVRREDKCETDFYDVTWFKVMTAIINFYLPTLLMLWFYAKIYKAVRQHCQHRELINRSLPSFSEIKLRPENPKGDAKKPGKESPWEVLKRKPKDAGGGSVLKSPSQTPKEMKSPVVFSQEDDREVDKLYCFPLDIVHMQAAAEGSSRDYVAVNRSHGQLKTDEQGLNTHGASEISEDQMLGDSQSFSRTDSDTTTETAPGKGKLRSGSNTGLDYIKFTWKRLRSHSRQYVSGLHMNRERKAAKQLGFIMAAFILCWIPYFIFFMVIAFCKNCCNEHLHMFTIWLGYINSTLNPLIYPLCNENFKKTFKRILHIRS
Sequence of Cytochrome P450 3A4 (P08684 whole entry): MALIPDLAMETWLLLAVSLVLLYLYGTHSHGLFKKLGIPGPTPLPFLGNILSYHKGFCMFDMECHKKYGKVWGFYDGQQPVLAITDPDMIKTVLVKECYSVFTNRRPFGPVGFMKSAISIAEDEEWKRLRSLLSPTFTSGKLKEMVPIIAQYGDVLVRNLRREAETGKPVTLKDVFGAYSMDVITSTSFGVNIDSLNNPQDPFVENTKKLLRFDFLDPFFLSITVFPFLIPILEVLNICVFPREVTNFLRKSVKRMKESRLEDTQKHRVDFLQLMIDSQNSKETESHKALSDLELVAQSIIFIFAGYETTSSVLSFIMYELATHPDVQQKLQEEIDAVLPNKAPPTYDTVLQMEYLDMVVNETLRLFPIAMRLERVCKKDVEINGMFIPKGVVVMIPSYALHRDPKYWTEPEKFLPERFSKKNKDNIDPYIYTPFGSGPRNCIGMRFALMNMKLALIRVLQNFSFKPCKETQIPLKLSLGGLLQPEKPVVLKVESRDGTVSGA
Sequence of Cytochrome P450 2D6 (P10635 whole entry): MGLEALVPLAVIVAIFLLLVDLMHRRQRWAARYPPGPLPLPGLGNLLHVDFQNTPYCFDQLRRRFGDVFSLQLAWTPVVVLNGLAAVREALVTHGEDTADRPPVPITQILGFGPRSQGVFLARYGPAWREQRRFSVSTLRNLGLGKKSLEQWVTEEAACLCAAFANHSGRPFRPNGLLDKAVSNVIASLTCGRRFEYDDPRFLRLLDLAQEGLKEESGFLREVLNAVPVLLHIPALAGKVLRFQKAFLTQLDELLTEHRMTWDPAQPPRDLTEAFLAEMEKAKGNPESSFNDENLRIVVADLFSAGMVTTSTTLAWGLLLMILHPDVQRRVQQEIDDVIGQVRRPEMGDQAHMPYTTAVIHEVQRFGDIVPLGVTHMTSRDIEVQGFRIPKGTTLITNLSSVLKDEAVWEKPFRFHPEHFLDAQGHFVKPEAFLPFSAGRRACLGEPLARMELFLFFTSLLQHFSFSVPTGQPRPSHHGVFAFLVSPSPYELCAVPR
T2 sequence (Q12809 whole entry): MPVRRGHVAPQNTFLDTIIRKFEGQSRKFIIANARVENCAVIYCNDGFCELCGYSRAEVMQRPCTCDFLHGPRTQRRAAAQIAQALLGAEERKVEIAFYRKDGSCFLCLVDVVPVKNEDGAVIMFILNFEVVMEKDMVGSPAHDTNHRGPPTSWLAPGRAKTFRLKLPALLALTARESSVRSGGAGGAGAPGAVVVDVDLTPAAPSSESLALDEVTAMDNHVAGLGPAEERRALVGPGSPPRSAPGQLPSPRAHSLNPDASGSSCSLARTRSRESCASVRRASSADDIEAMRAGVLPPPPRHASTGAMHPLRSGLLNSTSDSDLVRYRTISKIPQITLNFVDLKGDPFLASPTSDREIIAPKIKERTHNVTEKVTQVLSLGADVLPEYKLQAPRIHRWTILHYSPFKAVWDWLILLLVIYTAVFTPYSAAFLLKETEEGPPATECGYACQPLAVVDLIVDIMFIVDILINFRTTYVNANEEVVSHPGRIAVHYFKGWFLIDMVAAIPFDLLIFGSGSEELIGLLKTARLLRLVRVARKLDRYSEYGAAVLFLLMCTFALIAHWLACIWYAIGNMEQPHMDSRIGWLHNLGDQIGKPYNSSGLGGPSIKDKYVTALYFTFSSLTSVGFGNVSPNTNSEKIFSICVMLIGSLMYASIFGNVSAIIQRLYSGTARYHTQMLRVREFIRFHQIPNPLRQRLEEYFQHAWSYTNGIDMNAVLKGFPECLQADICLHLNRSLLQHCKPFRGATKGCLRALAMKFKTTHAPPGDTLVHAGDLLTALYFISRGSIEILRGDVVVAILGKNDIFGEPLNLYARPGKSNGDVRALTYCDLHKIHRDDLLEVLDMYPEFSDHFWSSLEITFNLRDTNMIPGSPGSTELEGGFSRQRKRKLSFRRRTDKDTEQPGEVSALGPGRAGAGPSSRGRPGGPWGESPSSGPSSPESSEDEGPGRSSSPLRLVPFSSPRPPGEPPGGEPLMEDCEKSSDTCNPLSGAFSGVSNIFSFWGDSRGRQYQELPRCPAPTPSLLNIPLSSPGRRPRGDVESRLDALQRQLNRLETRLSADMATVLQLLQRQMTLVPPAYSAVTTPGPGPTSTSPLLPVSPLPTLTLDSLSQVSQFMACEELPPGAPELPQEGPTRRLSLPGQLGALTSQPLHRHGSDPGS

C[C@H](c1cccnc1F)c1c(CCN(C)C)sc2ccccc12
concentration at 4 h [1]: 83 ng/g
Activity (Rattus norvegicus [2]): 45 min
Activity (Rattus norvegicus [3]): 64 min
Vd [4]: 5.6 L/kg
bioavailability [5]: 23%
half-life [6]: 13 h
Papp [7]: > 21.7 ×10⁻⁶ cm/s
Activity (Rattus norvegicus [8]): 6.4%
Activity (Rattus norvegicus [9]): 33 min
Activity (Rattus norvegicus [10]): 2.1 min
Activity (Rattus norvegicus [11]): 32%
Kp at 4 h [12]: 26
clearance [13]: 12.1 mL/min/kg
Ki (Histamine H1 receptor; read-out: Ki): 0.0017 µM
Ki [14]: > 10 µM
Activity [15]: inactive
AUC(0-t) [16]: 0.64 ng·h/mL
concentration at 4 h [17]: 3 ng/mL
Activity (Rattus norvegicus [18]): 2.2 min
Activity (Rattus norvegicus [19]): 5.8 min
Activity (Rattus norvegicus [20]): 49 min
Activity (Rattus norvegicus [21]): 27.4%
Activity (Rattus norvegicus [22]): 6.7 min
Activity (Rattus norvegicus [23]): 6.6%

C[C@@H](c1cncs1)c1c(CCN(C)C)sc2ccccc12
IC50 (Cytochrome P450 3A4): > 10 µM
Ki (Histamine H1 receptor; read-out: Ki): 0.0052 µM
Ki [14]: > 10 µM
Ki [24]: > 5 µM

Cc1ccnc(C(C)c2c(CCN(C)C)sc3ccccc23)c1 (racemic)
IC50 (Cytochrome P450 3A4): > 10 µM
Ki (Histamine H1 receptor; read-out: Ki): 0.39 µM
Ki [14]: > 10 µM
Ki [24]: > 5 µM

C[C@@H](c1ccccn1)c1c(CCN2CCC2)sc2ccccc12
IC50 (Cytochrome P450 3A4): > 10 µM
Ki (Histamine H1 receptor; read-out: Ki): 0.0039 µM
IC50 [25]: 0.73 µM
Ki [14]: > 10 µM
Ki [24]: 4.2 µM
IC50 (Cytochrome P450 2D6): > 10 µM

C[C@H](c1cccnc1Cl)c1c(CCN(C)C)sc2ccccc12
IC50 (Cytochrome P450 3A4): > 10 µM
Ki (Histamine H1 receptor; read-out: Ki): 0.0029 µM
IC50 [25]: 1.5 µM
Ki [14]: > 10 µM
Ki [24]: > 5 µM
IC50 (Cytochrome P450 2D6): 9.5 µM

C[C@@H](c1cscn1)c1c(CCN(C)C)sc2ccccc12
IC50 (Cytochrome P450 3A4): > 10 µM
Ki (Histamine H1 receptor; read-out: Ki): 0.0046 µM
Ki [14]: 4.76 µM

CC(c1cccc(F)n1)c1c(CCN(C)C)sc2ccccc12 (racemic)
IC50 (Cytochrome P450 3A4): > 10 µM
Ki (Histamine H1 receptor; read-out: Ki): 0.038 µM
Ki [14]: > 10 µM
Ki [24]: > 5 µM

Cc1ccc(C(C)c2c(CCN(C)C)sc3ccccc23)cn1 (racemic)
IC50 (Cytochrome P450 3A4): > 10 µM
Ki (Histamine H1 receptor; read-out: Ki): 0.069 µM
Ki [14]: > 10 µM
Ki [24]: > 5 µM

C[C@H](c1ccccn1)c1c(CCN(C)C)sc2ccccc12
IC50 (Cytochrome P450 3A4): > 10 µM
Ki (Histamine H1 receptor): 0.256 µM
Ki [14]: 0.99 µM
Ki [24]: > 5 µM
IC50 (Cytochrome P450 2D6): 3.3 µM

COc1ncccc1[C@@H](C)c1c(CCN(C)C)sc2ccccc12
concentration at 4 h [1]: 347 ng/g
Activity (Rattus norvegicus [2]): 49 min
Activity (Rattus norvegicus [3]): 72 min
Papp [7]: > 21.7 ×10⁻⁶ cm/s
IC50 (Cytochrome P450 3A4): > 10 µM
Activity (Rattus norvegicus [8]): 7%
Activity (Rattus norvegicus [9]): 37 min
Activity (Rattus norvegicus [10]): 2.3 min
Activity (Rattus norvegicus [11]): 28.3%
Kp at 4 h [12]: 9
Ki (Histamine H1 receptor; read-out: Ki): 0.0029 µM
IC50 [25]: 1.8 µM
Ratio (Caco-2): > 0.7
Ki [14]: > 10 µM
Activity [15]: inactive
concentration at 4 h [17]: 37.5 ng/mL
Ki [24]: > 5 µM
Activity (Rattus norvegicus [18]): 2.3 min
IC50 (Cytochrome P450 2D6): 9.6 µM
Activity (Rattus norvegicus [19]): 7 min
Activity (Rattus norvegicus [20]): 56 min
Activity (Rattus norvegicus [21]): 33.1%
Activity (Rattus norvegicus [22]): 6.7 min
Activity (Rattus norvegicus [23]): 6.8%

COc1cccc(C(C)c2c(CCN(C)C)sc3ccccc23)n1 (racemic)
IC50 (Cytochrome P450 3A4): > 10 µM
Ki (Histamine H1 receptor; read-out: Ki): 0.059 µM
Ki [14]: > 10 µM
Ki [24]: > 5 µM

CC(c1nccs1)c1c(CCN(C)C)sc2ccccc12 (racemic)
IC50 (Cytochrome P450 3A4): > 10 µM
Ki (Histamine H1 receptor; read-out: Ki): 0.035 µM
Ki [14]: 2.07 µM
Ki [24]: > 5 µM

CC(c1ccccn1)c1c(CCN(C)C)sc2ccccc12 (racemic)
IC50 (Cytochrome P450 3A4): > 10 µM
Ki (Histamine H1 receptor; read-out: Ki): 0.012 µM
Ki [14]: 1.4 µM
Ki [24]: > 5 µM
IC50 (Cytochrome P450 2D6): 6.9 µM

Cc1cccnc1[C@H](C)c1c(CCN(C)C)sc2ccccc12
IC50 (Cytochrome P450 3A4): > 10 µM
Ki (Histamine H1 receptor; read-out: Ki): 0.0093 µM
Ki [14]: > 10 µM
